The target in assay [1] is GDP-bound HRAS wild-type protein (Homo sapiens, UniProt P01112). As to the kind of experiment: Binding to HRAS by surface plasmon resonance (SPR), Single Cycle Kinetics. The following applies: SPR, GDP-bound HRAS wild-type protein vs GDP-bound KRAS wild-type protein.
Assay [2] relates to human lung cancer strain NCI-H441.
The target of assay [3] is GDP-bound KRAS wild-type protein (Homo sapiens, UniProt P01116). As to the kind of experiment: Binding to KRAS by surface plasmon resonance (SPR), Single Cycle Kinetics. The following applies: GDP-bound KRAS wild-type protein, read-out: KRAS KD.
Assay [4] concerns the target GDP-bound NRAS wild-type protein (Homo sapiens, UniProt P01111). As to the kind of experiment: Binding to NRAS by surface plasmon resonance (SPR), Single Cycle Kinetics. The following applies: SPR, GDP-bound NRAS wild-type protein vs GDP-bound KRAS wild-type protein.
The mark [5] stands for this setting: SPR, Single Cycle Kinetics, 1:1 binding model.

Each structure is given as a SMILES string. Read-outs that look alike come from different tables or passages of the source. Where a SMILES comes first, the peptide text is derived from it. Bridges are numbered along the chain shown (N, C = ends). [ ]: non-standard residue; d: D form. The star is where a group is joined. hPhe(3-Cl-4-CF3) = N[C@@H](CCc1ccc(C(F)(F)F)c(Cl)c1)C(=O)O; NPrPhe(4-CF3) = CCCN[C@@H](Cc1ccc(C(F)(F)F)cc1)C(=O)O; NMeGly(cPent) = CN[C@H](C(=O)O)C1CCCC1; NMeD = CN[C@@H](CC(=O)O)C(=O)O; NMeL = CN[C@@H](CC(C)C)C(=O)O; Morpholide = C1CN(*)CCO1; Ac5c = NC1(C(=O)O)CCCC1; Abu = CC[C@H](N)C(=O)O; NEtG = CCNCC(=O)O; Sar = CNCC(=O)O
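For IC50 in this document: cell proliferation inhibition after four days measured by CellTiter-Glo.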

Chain of GDP-bound HRAS wild-type protein (P01112 whole entry): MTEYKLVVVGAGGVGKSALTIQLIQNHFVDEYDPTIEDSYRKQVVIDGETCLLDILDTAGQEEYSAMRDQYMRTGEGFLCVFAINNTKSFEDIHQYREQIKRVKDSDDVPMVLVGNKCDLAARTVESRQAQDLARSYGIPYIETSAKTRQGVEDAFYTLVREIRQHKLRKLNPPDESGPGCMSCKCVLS
Chain of GDP-bound KRAS wild-type protein (P01116 whole entry): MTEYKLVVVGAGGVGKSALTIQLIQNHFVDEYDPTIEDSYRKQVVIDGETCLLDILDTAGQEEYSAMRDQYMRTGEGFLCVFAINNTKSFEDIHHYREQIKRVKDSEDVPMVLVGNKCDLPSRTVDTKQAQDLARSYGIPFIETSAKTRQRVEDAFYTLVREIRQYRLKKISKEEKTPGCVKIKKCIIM
Chain of GDP-bound NRAS wild-type protein (P01111 whole entry): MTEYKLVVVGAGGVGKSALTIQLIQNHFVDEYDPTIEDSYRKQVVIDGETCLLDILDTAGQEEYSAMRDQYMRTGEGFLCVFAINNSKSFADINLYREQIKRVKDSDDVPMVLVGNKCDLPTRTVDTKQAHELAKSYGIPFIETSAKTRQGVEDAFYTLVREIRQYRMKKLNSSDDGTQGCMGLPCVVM

For the compound `CC[C@H](C)[C@@H]1NC(=O)[C@H](CC)N(C)C(=O)C[C@@H](C(=O)N2CCOCC2)N(C)C(=O)[C@H](C2CCCC2)N(C)C(=O)C2(CCCC2)NC(=O)[C@@H]2CCCN2C(=O)[C@H](CCc2cc(F)c(C(F)(F)F)c(F)c2)NC(=O)CN(C)C(=O)[C@H](Cc2ccc(C(F)(F)F)cc2)N2C[C@H](C)CC[C@@H](C2=O)N(C)C(=O)CN(C)C1=O` [PP1383], the “HRAS/KRAS (ratio of KD value for HRAS to KD value for KRAS)” value in assay [1] (KD ratio class) was “B (a compound having 3 or more and less than 10 is denoted as B)”. The compound also yielded an IC50 in assay [2] of 11.2 nM. Further, in assay [3] (setting [5]), the Kd was 0.17 nM. Also, the “NRAS/KRAS (ratio of KD value for NRAS to KD value for KRAS)” value in assay [4] (KD ratio class) was “B (a compound having 3 or more and less than 10 is denoted as B)”.
Turning to `CC[C@H](C)[C@@H]1NC(=O)[C@H](CC2CCC2)N(C)C(=O)C[C@@H](C(=O)N(C)C)N(C)C(=O)[C@H](C2CCCC2)N(C)C(=O)C2(CCCC2)NC(=O)[C@@H]2CCCN2C(=O)[C@H](CCc2ccc(C(F)(F)F)c(Cl)c2)NC(=O)CN(C)C(=O)[C@H](Cc2ccc(C(F)(F)F)cc2)N2C[C@H](C)CC[C@@H](C2=O)N(C)C(=O)CN(C)C1=O` [PP1342], the “HRAS/KRAS (ratio of KD value for HRAS to KD value for KRAS)” value in assay [1] (KD ratio class) was “B (a compound having 3 or more and less than 10 is denoted as B)”. The compound further yielded a half-inhibitory concentration (IC50) in assay [2] of 5 nM. Moreover, the dissociation constant (Kd) in assay [3] (setting [5]) was 0.091 nM. The “NRAS/KRAS (ratio of KD value for NRAS to KD value for KRAS)” value in assay [4] (KD ratio class) is “B (a compound having 3 or more and less than 10 is denoted as B)”.
For `CCCOC[C@H]1C(=O)N[C@@H]([C@@H](C)OCC)C(=O)N2CCC[C@H]2C(=O)N(C)[C@H]2C/C=C\CCN(C2=O)[C@@H](Cc2ccc(C)cc2)C(=O)N(C)CC(=O)N[C@@H](CCc2ccc(C(F)(F)F)c(OC)c2)C(=O)N2C[C@@H](C)C[C@H]2C(=O)NC2(CC(C)(C)C2)C(=O)N(C)[C@@H](C2CCCC2)C(=O)N(C)[C@H](C(=O)N(C)CC)CC(=O)N1C` [PP2431], in assay [1], the “HRAS/KRAS (ratio of KD value for HRAS to KD value for KRAS)” value was “A (a compound having 10 or more and less than 20 is denoted as A)”. For the same compound, the IC50 in assay [2] worked out at 79.5 nM. For the same compound, the Kd in assay [3] (SPR, Single Cycle Kinetics) worked out at 2.3 nM. Besides, in assay [4], the “NRAS/KRAS (ratio of KD value for NRAS to KD value for KRAS)” value was “A (a compound having 10 or more and less than 20 is denoted as A)”.
For the compound `CCO[C@@H]1C[C@H]2C(=O)NC3(CCC3)C(=O)N(C)[C@@H](C(CC)CC)C(=O)N(C)[C@H](C(=O)N(C)C)CC(=O)N(C)[C@@H](CC3CC3)C(=O)N[C@@H]([C@@H](C)CC)C(=O)N(C)CC(=O)N(C)[C@H]3C/C=C\CCN(C3=O)[C@@H](Cc3ccc(C(F)(F)F)cc3)C(=O)N(C)CC(=O)N[C@@H](CCc3ccc4sccc4c3)C(=O)N2C1` [PP1227], the “HRAS/KRAS (ratio of KD value for HRAS to KD value for KRAS)” value in assay [1] (KD ratio class) is “A (a compound having 10 or more and less than 20 is denoted as A)”. In assay [2], this compound registered an IC50 of 128 nM. Besides, in assay [3] (setting [5]), the Kd is 1.6 nM. In addition, the “NRAS/KRAS (ratio of KD value for NRAS to KD value for KRAS)” value in assay [4] (KD ratio class) is “A (a compound having 10 or more and less than 20 is denoted as A)”.
Turning to `CCO[C@@H]1C[C@H]2C(=O)NC3(CCC3)C(=O)N(C)[C@@H](C(CC)CC)C(=O)N(C)[C@H](C(=O)N(C)C)CC(=O)N(C)[C@@H](CC)C(=O)N[C@@H]([C@@H](C)CC)C(=O)N(C)CC(=O)N(C)[C@H]3C/C=C\CCN(C3=O)[C@@H](Cc3ccc(C(F)(F)F)cc3)C(=O)N(C)CC(=O)N[C@@H](CCc3cc(F)c(Cl)c(F)c3)C(=O)N2C1` [PP1230], in assay [1] (KD ratio class), the “HRAS/KRAS (ratio of KD value for HRAS to KD value for KRAS)” value was “A (a compound having 10 or more and less than 20 is denoted as A)”. Half-maximal inhibition in assay [2] (IC50) required 110 nM. Moreover, the dissociation constant Kd in assay [3] (setting [5]) is 0.77 nM. Besides, the “NRAS/KRAS (ratio of KD value for NRAS to KD value for KRAS)” value in assay [4] (KD ratio class) is “A (a compound having 10 or more and less than 20 is denoted as A)”.
Consider `CCCN1C(=O)CN(C)C(=O)CN(CC)C(=O)[C@H](CC)NC(=O)[C@H](CC(C)C)N(C)C(=O)C[C@@H](C(=O)N2CCOCC2)N(C)C(=O)[C@H](C2CCCC2)N(C)C(=O)C2(CCCC2)NC(=O)[C@@H]2CCCN2C(=O)[C@H](CCc2ccc(C(F)(F)F)c(Cl)c2)NC(=O)CN(C)C(=O)[C@@H]1Cc1ccc(C(F)(F)F)cc1` [PP0290] ([NMeL][Abu][NEtG][Sar][NPrPhe(4-CF3)][Sar][hPhe(3-Cl-4-CF3)]P[Ac5c][NMeGly(cPent)][NMeD]-Morpholide; lactam N-11), for which the “HRAS/KRAS (ratio of KD value for HRAS to KD value for KRAS)” value in assay [1] was “C (A compound having a KD ratio of 0.1 or more and less than 3 is denoted as C)”. Moreover, half-maximal inhibition in assay [2] (IC50) was put at 149 nM. Moreover, the Kd in assay [3] (SPR Single Cycle Kinetics, 1:1 binding model) turned out to be 4.8 nM. Also, in assay [4], the “NRAS/KRAS (ratio of KD value for NRAS to KD value for KRAS)” value is “B (a compound having 3 or more and less than 10 is denoted as B)”.
On to `CCO[C@@H]1C[C@H]2C(=O)NC3(CCC3)C(=O)N(C)[C@@H](C3CCCC3)C(=O)N(C)[C@H](C(=O)N(C)C)CC(=O)N(C)[C@@H](Cc3cccs3)C(=O)N[C@@H]([C@@H](C)CC)C(=O)N(C)CC(=O)N(C)[C@H]3CCCCCN(C3=O)[C@@H](Cc3ccc(F)cc3)C(=O)N(C)CC(=O)N[C@@H](CCc3cc(F)c(C(F)(F)F)c(F)c3)C(=O)N2C1` [PP1197], for which, in assay [1], the “HRAS/KRAS (ratio of KD value for HRAS to KD value for KRAS)” value is “B (a compound having 3 or more and less than 10 is denoted as B)”. In assay [2], this compound gave a half-maximal inhibitory concentration (IC50) of 14.8 nM. For the same compound, the Kd in assay [3] (SPR, Single Cycle Kinetics) came to 0.096 nM. Further, the “NRAS/KRAS (ratio of KD value for NRAS to KD value for KRAS)” value in assay [4] was “B (a compound having 3 or more and less than 10 is denoted as B)”.
Take `CCO[C@@H]1C[C@H]2C(=O)NC3(CCC3)C(=O)N(C)[C@@H](C3CCCC3)C(=O)N(C)[C@H](C(=O)N3CCC3)CC(=O)N(C)[C@@H](CC)C(=O)N[C@@H]([C@@H](C)CC)C(=O)N(C)CC(=O)N(C)[C@H]3C/C=C\CCN(C3=O)[C@@H](CC3CCCCC3)C(=O)N(C)CC(=O)N[C@@H](CCc3cc(F)c(C(F)(F)F)c(F)c3)C(=O)N2C1` [PP1445]: the “HRAS/KRAS (ratio of KD value for HRAS to KD value for KRAS)” value in assay [1] (KD ratio class) is “A (a compound having 10 or more and less than 20 is denoted as A)”. Besides, half-maximal inhibition in assay [2] (IC50) was put at 92.8 nM. Further, the Kd in assay [3] (setting [5]) worked out at 0.27 nM. The “NRAS/KRAS (ratio of KD value for NRAS to KD value for KRAS)” value in assay [4] (KD ratio class) was “A (a compound having 10 or more and less than 20 is denoted as A)”.
As to `CCO[C@@H]1C[C@H]2C(=O)NC3(CCC3)C(=O)N(C)[C@@H](C3CCCC3)C(=O)N(C)[C@H](C(=O)N(C)C)CC(=O)N(C)[C@@H](CC)C(=O)N[C@@H]([C@@H](C)CC)C(=O)N(C)CC(=O)N(C)[C@H]3C/C=C\CCN(C3=O)[C@@H](CC3CCCCC3)C(=O)N(C)CC(=O)N[C@@H](CCc3cc(F)c(C(F)(F)F)c(F)c3)C(=O)N2C1` [PP1466, (2S,8S,12R,14S,20S,23S,27S,30S,36S,38Z)-2-(cyclohexylmethyl)-20-cyclopentyl-8-[2-[3,5-difluoro-4-(trifluoromethyl)phenyl]ethyl]-12-ethoxy-27-ethyl-N,N,4,19,22,26,32,35-octamethyl-30-[(1S)-1-methylpropyl]-3,6,9,15,18,21,25,28,31,34,42-undecaoxo-spiro[1,4,7,10,16,19,22,26,29,32,35-undecazatricyclo[34.5.1.0^10,14]dotetracont-38-ene-17,1′-cyclobutane]-23-carboxamide], the “HRAS/KRAS (ratio of KD value for HRAS to KD value for KRAS)” value in assay [1] (KD ratio class) is “A (a compound having 10 or more and less than 20 is denoted as A)”. This compound also came in with an IC50 in assay [2] of 33.2 nM. The Kd in assay [3] (setting [5]) stood at 0.14 nM. In addition, in assay [4] (KD ratio class), the “NRAS/KRAS (ratio of KD value for NRAS to KD value for KRAS)” value was “A (a compound having 10 or more and less than 20 is denoted as A)”.

(Values after US20240158446A1, “CYCLIC COMPOUND HAVING SELECTIVE INHIBITORY ACTION ON KRAS OVER HRAS AND NRAS” (CHUGAI SEIYAKU KABUSHIKI KAISHA, priority 2021, published 2024).)
